The text below walks through data of ChEMBL document CHEMBL3046572, “Synthesis and evaluation of antibacterial and antitubercular activities of some novel imidazo[2,1-b][1,3,4]thiadiazole derivatives” (2013).

By MIC is commonly meant the lowest concentration found to suppress growth.

Holding throughout (type): functional
The subject of one assay is Vibrio cholerae. The assay is described as follows: Antibacterial activity against Vibrio cholerae assessed as growth inhibition after 18 hr by broth microdilution method. On the technique in general: Broth dilution looks for growth in wells or tubes with falling amounts of substance.
For another assay, the system named is Escherichia coli. The assay is described as follows: Antibacterial activity against Escherichia coli assessed as growth inhibition after 18 hr by broth microdilution method.
For another assay, the system named is Bacillus subtilis. The assay is described as follows: Antibacterial activity against Bacillus subtilis assessed as growth inhibition after 18 hr by broth microdilution method.
Assay [1] deals with Mycobacterium tuberculosis. The assay is described as follows: Antitubercular activity against Mycobacterium tuberculosis H37Rv assessed as growth inhibition after 5 days by microplate alamar blue assay. The conditions noted are these: 120 h. (The colour change of resazurin is a common sign of viable cells or microbes.)
A further assay relates to Staphylococcus aureus. The assay is described as follows: Antibacterial activity against Staphylococcus aureus assessed as growth inhibition after 18 hr by broth microdilution method.

Values after ≈ are worked out from the molar mass of the structure shown.

Regarding `CCN(CC)c1ccc2cc(-c3nc4sc(S(N)(=O)=O)nn4c3CN3CCCC3)c(=O)oc2c1`, the MIC with Vibrio cholerae worked out at 8 µg/mL (≈ 15.9 µM); in the assay on Escherichia coli, 8 µg/mL (≈ 15.9 µM); in the assay with Bacillus subtilis, 62.5 µg/mL (≈ 124 µM); in assay [1], 25 µg/mL (≈ 49.7 µM); with Staphylococcus aureus it was 62.5 µg/mL (≈ 124 µM).
In the case of `CCN(CC)c1ccc2cc(-c3nc4sc(S(N)(=O)=O)nn4c3SC#N)c(=O)oc2c1`, the MIC in the assay on Vibrio cholerae is 31.2 µg/mL (≈ 65.6 µM); with Escherichia coli, 31.2 µg/mL (≈ 65.6 µM); in the assay with Bacillus subtilis, 62.5 µg/mL (≈ 131 µM); in assay [1], 12.5 µg/mL (≈ 26.2 µM); with Staphylococcus aureus it was 62.5 µg/mL (≈ 131 µM).
For the molecule `CCN(CC)c1ccc2cc(-c3nc4sc(S(=O)(=O)/N=C/N(C)C)nn4c3C=O)c(=O)oc2c1`, the MIC in the assay on Vibrio cholerae is 4 µg/mL (≈ 7.96 µM); with Escherichia coli, 4 µg/mL (≈ 7.96 µM); with Bacillus subtilis, 16 µg/mL (≈ 31.8 µM); in assay [1] it was 1.6 µg/mL (≈ 3.18 µM); in the assay on Staphylococcus aureus it was 16 µg/mL (≈ 31.8 µM).
As for `CCN(CC)c1ccc2cc(-c3nc4sc(S(=O)(=O)/N=C/N(C)C)nn4c3CO)c(=O)oc2c1`, the MIC was determined as 8 µg/mL (≈ 15.9 µM) in the assay with Vibrio cholerae; 8 µg/mL (≈ 15.9 µM) in the assay with Escherichia coli; 31.2 µg/mL (≈ 61.9 µM) with Bacillus subtilis; 3.12 µg/mL (≈ 6.19 µM) in assay [1]; 31.2 µg/mL (≈ 61.9 µM) in the assay on Staphylococcus aureus.
Consider `CCN(CC)c1ccc2cc(-c3nc4sc(S(=O)(=O)/N=C/N(C)C)nn4c3/C=N/O)c(=O)oc2c1`, for which the MIC was 16 µg/mL (≈ 30.9 µM) in the assay on Vibrio cholerae; 16 µg/mL (≈ 30.9 µM) with Escherichia coli; 62.5 µg/mL (≈ 121 µM) in the assay on Bacillus subtilis; 25 µg/mL (≈ 48.3 µM) in assay [1]; 62.5 µg/mL (≈ 121 µM) in the assay with Staphylococcus aureus.
Take `CCN(CC)c1ccc2cc(-c3nc4sc(S(=O)(=O)/N=C/N(C)C)nn4c3C#N)c(=O)oc2c1`: the MIC turned out to be 16 µg/mL (≈ 32 µM) with Vibrio cholerae; 16 µg/mL (≈ 32 µM) in the assay with Escherichia coli; 62.5 µg/mL (≈ 125 µM) with Bacillus subtilis; 25 µg/mL (≈ 50 µM) in assay [1]; 62.5 µg/mL (≈ 125 µM) in the assay with Staphylococcus aureus.
Consider `CCN(CC)c1ccc2cc(-c3nc4sc(S(=O)(=O)/N=C/N(C)C)nn4c3C3SCC(=O)N3c3ccccc3)c(=O)oc2c1` (stereo unspecified), for which the MIC with Vibrio cholerae worked out at 1 µg/mL (≈ 1.53 µM); in the assay with Escherichia coli, 1 µg/mL (≈ 1.53 µM); in the assay on Bacillus subtilis, 16 µg/mL (≈ 24.5 µM); in assay [1] it was 0.8 µg/mL (≈ 1.23 µM); in the assay on Staphylococcus aureus it was 16 µg/mL (≈ 24.5 µM).
Take `CCN(CC)c1ccc2cc(-c3nc4sc(S(=O)(=O)/N=C/N(C)C)nn4c3/C=N/NC(=N)N)c(=O)oc2c1`: the MIC with Vibrio cholerae was found to be 1 µg/mL (≈ 1.79 µM); in the assay on Escherichia coli, 1 µg/mL (≈ 1.79 µM); in the assay on Bacillus subtilis it was 16 µg/mL (≈ 28.6 µM); in assay [1], 0.8 µg/mL (≈ 1.43 µM); in the assay with Staphylococcus aureus it was 16 µg/mL (≈ 28.6 µM).
`CCN(CC)c1ccc2cc(-c3cn4nc(S(N)(=O)=O)sc4n3)c(=O)oc2c1`: the MIC is 31.2 µg/mL (≈ 74.5 µM) in the assay with Vibrio cholerae; 31.2 µg/mL (≈ 74.5 µM) with Escherichia coli; 62.5 µg/mL (≈ 149 µM) in the assay on Bacillus subtilis; 3.12 µg/mL (≈ 7.45 µM) in assay [1]; 62.5 µg/mL (≈ 149 µM) in the assay on Staphylococcus aureus.
As to `CCN(CC)c1ccc2cc(-c3nc4sc(S(N)(=O)=O)nn4c3CN3CCOCC3)c(=O)oc2c1`, the MIC with Vibrio cholerae came out at 31.2 µg/mL (≈ 60.3 µM); in the assay on Escherichia coli, 31.2 µg/mL (≈ 60.3 µM); with Bacillus subtilis, 62.5 µg/mL (≈ 121 µM); in assay [1], 25 µg/mL (≈ 48.2 µM); in the assay on Staphylococcus aureus, 62.5 µg/mL (≈ 121 µM).
For `CCN(CC)c1ccc2cc(-c3nc4sc(S(N)(=O)=O)nn4c3CN3CCCCC3)c(=O)oc2c1`, the MIC stood at 31.2 µg/mL (≈ 60.5 µM) with Vibrio cholerae; 31.2 µg/mL (≈ 60.5 µM) with Escherichia coli; 62.5 µg/mL (≈ 121 µM) with Bacillus subtilis; 25 µg/mL (≈ 48.4 µM) in assay [1]; 62.5 µg/mL (≈ 121 µM) in the assay on Staphylococcus aureus.
Take `CCN(CC)c1ccc2cc(-c3nc4sc(S(N)(=O)=O)nn4c3Br)c(=O)oc2c1`: the MIC in the assay with Vibrio cholerae came out at 16 µg/mL (≈ 32.1 µM); in the assay on Escherichia coli it was 16 µg/mL (≈ 32.1 µM); with Bacillus subtilis, 62.5 µg/mL (≈ 125 µM); in assay [1], 6.25 µg/mL (≈ 12.5 µM); in the assay on Staphylococcus aureus it was 62.5 µg/mL (≈ 125 µM).
For the molecule `CCN(CC)c1ccc2cc(-c3nc4sc(S(N)(=O)=O)nn4c3N=O)c(=O)oc2c1`, the MIC in the assay on Vibrio cholerae came out at 31.2 µg/mL (≈ 69.7 µM); in the assay with Escherichia coli it was 31.2 µg/mL (≈ 69.7 µM); in the assay on Bacillus subtilis, 125 µg/mL (≈ 279 µM); in assay [1], 50 µg/mL (≈ 111 µM); with Staphylococcus aureus, 125 µg/mL (≈ 279 µM).
`CCn1cc(C(=O)O)c(=O)c2cc(F)c(N3CCNCC3)cc21` [NORFLOXACIN]: the MIC in the assay with Vibrio cholerae was found to be 1 µg/mL (≈ 3.13 µM); with Escherichia coli, 16 µg/mL (≈ 50.1 µM); with Bacillus subtilis, 2 µg/mL (≈ 6.26 µM); with Staphylococcus aureus, 2 µg/mL (≈ 6.26 µM).
Turning to `NC(=O)c1cnccn1` [PYRAZINAMIDE], the MIC in assay [1] was determined as 3.12 µg/mL (≈ 25.4 µM).
Same read-out and setting: the value for `CN[C@@H]1[C@H](O[C@H]2[C@H](O[C@H]3[C@H](O)[C@@H](O)[C@H](N=C(N)N)[C@@H](O)[C@@H]3N=C(N)N)O[C@@H](C)[C@]2(O)C=O)O[C@@H](CO)[C@H](O)[C@H]1O` [STREPTOMYCIN] was 6.25 µg/mL (≈ 10.7 µM).
